The text below walks through data of patent publication US9624219B2, “Compound (S) and (R)-N-(2-fluoropyridin-4-yl)-3-methyl-2-(5-methyl-2,4-dioxo-1,2-dihydropyrido[3,4-d]pyrimidin-3(4H)-yl)butanamide and use” (GlaxoSmithKline Intellectual Property Development Limited, priority 2015, dated 2017).

The solubility is the dissolved amount per volume that the medium holds. Higher therefore signals much dissolved substance. In general, pIC50 refers to the negative decadic logarithm of the IC50, by convention in mol/L.

Data set [1] in a line: Solubility assessment in FaSSIF (equilibrium solubility). The class given is physicochemical. The note with it: thermodynamic from solid, 4 hr at room temperature, LC-MS. Here is the method:
Solubility Assessment in FaSSIF
Organic solvents of HPLC grade were used. Ultra pure water (Milli-Q grade) was used. Buffers were prepared with ultra pure water and filtered using 0.45μ nylon filters.
Determination of Equilibrium Solubility (Assuming Chemical Stability in the Desired Solvent is not a Problem).
• a) 1 mg of solid compound was weighted in one 4 mL glass vial and 1 mL of FaSSIF was added. All these samples were prepared by duplicate. • b) The samples were stirred (roller mixer) for 4 hr at room temperature. If required, additional solid compound (0.1 mg) was added to maintain excess of it (saturated solutions). • c) After 4 hours, the samples were centrifuged (10000 rpm, 10 min.) and the supernatants were transfer to an HPLC vial and analysed by LC-MS (previous dilution with mobile phase when needed). • d) The pH of the final solution in each sample was measured with a pH-meter (WTW pH330i and a pH-electrode Sentix 41). LC-MS Assay for Analytical Quantification
All supernatants were analysed by LC-MS. Quantification of those samples was carried out against calibration curves obtained from 1 mg/mL DMSO (Aldrich cat. ref.: 27685-5) stock solutions, by dilution with the mobile phase used in the chromatography. Depending on the solubility range, U.V. (1 μg/mL to 100 μg/mL) or MS (1 μg/mL to 1 ng/mL) detector were used in the quantification. […]

Another data set deals with P. Falciparum Pf3D7A. In words: P. falciparum growth inhibition assay ([3H]hypoxanthine incorporation). The note with it: Plasmodium falciparum, 48 h, read-out: average Pf IC50. It counts as cell-based. Here is the method: P. falciparum Growth Inhibition Assay. The sensitivity of P. falciparum infected erythrocytes to the compound is determined in triplicate using the [^3H]hypoxanthine incorporation method with an inoculum of 0.5% parasitemia (ring stage) and 2% hematocrit. The parasites were grown in RPMI 1640 and supplemented with […] (or 10% serum). Plates are incubated at 37° C., 5% CO2, 5% O2, 90% N2. After 24 h of incubation, [^3H]hypoxanthine is added and plates are incubated for another 24 h. After that period, plates are harvested on a glass fiber filter using a TOMTEC Cell harvester 96. Filters are dried and melt on scintillator sheets and the bound radioactivity is quantified by use of a Wallac Microbeta Trilux (Model 1450 LS-Perkin Elmer). IC50s are determined using Grafit 5 program (Grafit program; Erithacus Software, Horley, Surrey, United Kingdom).

In data set [2] the test system is Plasmodium falciparum Pf3D7^0087/N9. In words: P. falciparum in vivo efficacy assay (mouse model). On the set-up: species or system NODscidIL2Rγ^null mice engrafted with human erythrocytes. The note with it: interval of confidence 95%. Here is the method: P. falciparum In Vivo Efficacy Assay.
Antimalarial in vivo efficacy was determined using the P. falciparum mouse model following the procedure described in: Jimenez-Diaz, M. B., Mulet, T., Viera, S., Gómez, V., Garuti, H., Ibañez, J., Alvarez-Doval, A., Shlutz, D. L., Martinez, A., Improved Murine Model Of Malaria Using Plasmodium falciparum (Competent Strains and Non-Myelodepleted NOD-scid IL2R_null Mice Engrafted with Human Erythrocytes) Antimicrob. Agents Chemother 2009, 53 (10), 4533-4536.
The goal of this study is to assess the therapeutic efficacy of Example 1 against Plasmodium falciparum Pf3D7^0087/N9 growing in peripheral blood of NODscidIL2Rγ^null mice engrafted with human erythrocytes. The levels of Example 1 are measured in serial peripheral blood samples obtained from each mouse of the efficacy experiment during the first 23 hrs after the first dose. The area under the curve of levels of compound is used to estimate the exposure in blood during the first 23 hours after the first administration (AUC0-23h).
The effect of Example 1 on P. Falciparum Pf3D7^0087/N9 was assessed by microscopy and flow cytometry.

pIC50: −log10 of the molar value. In brackets after ≈: the same amount, converted by molar mass.

The compound `Cc1cncc2[nH]c(=O)n([C@H](C(=O)Nc3ccnc(F)c3)C(C)C)c(=O)c12` [Example 1, (S)—N-(2-fluoropyridin-4-yl)-3-methyl-2-(5-methyl-2,4-dioxo-1,2-dihydropyrido[3,4-d]pyrimidin-3(4H)-yl)butanamide] had a solubility at 4 h in data set [1] of 426 µg/mL (≈ 1150 µM). For the same compound, the pIC50 with P. Falciparum Pf3D7A was 7.49. Further, the “mean ED90” value in data set [2] (P. falciparum Pf3D7^0087/N9 in humanised NODscidIL2Rγnull mice) came out at 0.53 mg/kg. Also, the “mean AUCED90” value in data set [2] (blood exposure at ED90 (AUC0-23h after first dose), P. falciparum mouse model) worked out at 0.18 μg·h·mL-1·day-1.
